Reference: patent publication US5952328A, “Benzothiazo and related heterocyclic group-containing cysteine and serine protease inhibitors” (Cephalon, Inc., priority 1997, dated 1999)

Target: T1, Calpain I (Homo sapiens, UniProt P07384)
T1 construct: made in house
T1 sequence (P07384 1-714): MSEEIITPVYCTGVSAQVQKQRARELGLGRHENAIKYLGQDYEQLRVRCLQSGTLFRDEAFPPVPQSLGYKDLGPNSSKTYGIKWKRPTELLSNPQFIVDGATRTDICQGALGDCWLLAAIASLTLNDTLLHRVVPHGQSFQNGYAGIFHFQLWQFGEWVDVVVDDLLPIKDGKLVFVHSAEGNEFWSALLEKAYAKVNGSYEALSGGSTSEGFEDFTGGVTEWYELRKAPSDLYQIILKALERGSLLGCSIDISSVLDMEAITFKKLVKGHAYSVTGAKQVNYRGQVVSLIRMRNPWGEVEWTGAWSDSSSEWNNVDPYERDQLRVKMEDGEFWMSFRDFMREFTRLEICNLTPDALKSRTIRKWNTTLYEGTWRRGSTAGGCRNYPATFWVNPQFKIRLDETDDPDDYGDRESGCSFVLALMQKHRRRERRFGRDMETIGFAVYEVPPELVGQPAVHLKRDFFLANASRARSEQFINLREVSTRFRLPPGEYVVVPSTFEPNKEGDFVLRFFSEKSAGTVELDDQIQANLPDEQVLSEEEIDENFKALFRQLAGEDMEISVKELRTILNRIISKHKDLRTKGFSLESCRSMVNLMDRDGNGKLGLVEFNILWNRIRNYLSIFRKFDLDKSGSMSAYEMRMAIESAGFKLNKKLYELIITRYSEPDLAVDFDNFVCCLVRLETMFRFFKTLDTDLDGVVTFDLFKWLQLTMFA
T1 sequence (P04632 1-268 partner): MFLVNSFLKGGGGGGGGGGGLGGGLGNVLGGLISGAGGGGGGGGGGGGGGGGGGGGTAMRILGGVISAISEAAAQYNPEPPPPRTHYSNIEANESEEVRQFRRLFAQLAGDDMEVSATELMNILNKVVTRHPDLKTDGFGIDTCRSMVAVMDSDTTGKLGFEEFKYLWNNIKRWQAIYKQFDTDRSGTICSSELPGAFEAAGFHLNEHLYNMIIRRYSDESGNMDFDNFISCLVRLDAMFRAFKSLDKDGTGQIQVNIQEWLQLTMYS
Test: Inhibition of calpain I activity (Succ-Leu-Tyr-MNA substrate hydrolysis, fluorescence)
Assay type: biochemical
Conditions: Table II; calpain I, 0.2 mM Succ-Leu-Tyr-MNA, pH 7.5; * mixture of diastereomers, a,b single diastereomers; read-out: IC50
Experimental: To evaluate inhibitory activity, stock solutions (40 times concentrated) of each compound to be tested were prepared in 100% anhydrous DMSO and […] of each inhibitor preparation were aliquoted into each of three wells of a 96-well plate. Calpain I, prepared by a modification of the method of W. J. Lee et al. (Biochem. […] To start the reaction, […] of 50 mM CaCl2 in assay buffer was added to each of the wells of the plate, excepting three, which were used as background signal baseline controls. Substrate hydrolysis was monitored every 5 minutes for a total of 30 minutes using a Fluoroskan II fluorescence plate reader. […] Inhibition of calpain I activity was calculated as the percent decrease in the rate of substrate hydrolysis in the presence of inhibitor relative to the rate in its absence. Comparison between the inhibited and control rates was made within the linear range for substrate hydrolysis. For screening, compounds were tested at […]. […] The results were plotted as percent inhibition versus log inhibitor concentration, and the IC50 was calculated from linear regression of the data.

Row | SMILES | IC50 [nM]
1 | COc1cc2c(cc1OC)S(=O)(=O)N(C)C(C(=O)N[C@H](C=O)Cc1ccccc1)C2 (stereo partly drawn) [Cpd 12f, N-(3,4-Dihydro-6,7-dimethoxy-2-methyl-2H-1,2-benzothiazine-3-carbonyl)-L-phenylalaninal 1,1-dioxide] | 38
2 | COc1cc2c(cc1OC)S(=O)(=O)NC(C(=O)N[C@H](C=O)Cc1ccccc1)C2 (single isomer, unassigned) [Cpd 12c, N-(3,4-Dihydro-6,7-dimethoxy-2H-1,2-benzothiazine-3-carbonyl)-L-phenylalaninal 1,1-dioxide] | ~800
3 | CN1C(C(=O)N[C@H](C=O)Cc2ccccc2)Cc2cc(N3CCOCC3)ccc2S1(=O)=O (stereo partly drawn) [Cpd 12aa, N-(3,4-Dihydro-6-(4-morpholino)-2-methyl-2H-1,2-benzothiazine-3-carbonyl)-L-phenylalaninal 1,1-dioxide] | 30
4 | CN1C(C(=O)N[C@H](C=O)CCCCNS(=O)(=O)c2ccccc2)Cc2cc3c(cc2S1(=O)=O)OCCO3 (stereo partly drawn) [Cpd 12x, Nα -(3,4-Dihydro-6,7-ethylenedioxy-2-methyl-2H-1,2-benzothiazine-3-carbonyl)-L-Nε -(benzenesulfonyl)lysinal 1,1-dioxide] | 36
5 | CN1C(C(=O)N[C@H](C=O)Cc2ccccc2)Cc2cc(Cl)ccc2S1(=O)=O (stereo partly drawn) [Cpd 12p, N-(6-Chloro-3,4-dihydro-2-methyl-2H-1,2-benzothiazine-3-carbonyl)-L-phenylalaninal 1,1-dioxide] | 5
6 | CN1C(C(=O)N[C@H](C=O)Cc2ccccc2)Cc2cc3c(cc2S1(=O)=O)OCCO3 (stereo partly drawn) [Cpd 12r, N-(3,4-Dihydro-6,7-ethylenedioxy-2-methyl-2H-1,2-benzothiazine-3-carbonyl)-L-phenylalaninal 1,1-dioxide] | 24
7 | COc1cc2c(cc1OC)S(=O)(=O)OC(C(=O)N[C@H](C=O)Cc1ccccc1)C2 (stereo partly drawn) [Cpd 12b, N-(3,4-Dihydro-6,7-dimethoxy-2,1-benzoxathiin-3-carbonyl)-L-phenylalaninal 1,1-dioxide] | 51

Same assay, conditions: Table III; calpain I, 0.2 mM Succ-Leu-Tyr-MNA, pH 7.5; * mixture of diastereomers, a,b single diastereomers; read-out: IC50

Row | SMILES | IC50 [nM]
8 | CCN1C(C(=O)N[C@@H](Cc2ccccc2)C(=O)C(=O)NCCNS(=O)(=O)c2ccc(F)cc2)Cc2cc3c(cc2S1(=O)=O)OCCO3 (stereo partly drawn) [Cpd 14AC, 3-((3,4-Dihydro-6,7-ethylenedioxy-2-ethyl-2H-1,2-benzothiazine-3-carbonyl)amino)-3-(S)-benzyl-2-oxo-N-(2-(4-fluorobenzenesulfonylamino)ethyl)propanamide 1,1-dioxide] | 29
9 | CCN1C(C(=O)N[C@@H](Cc2ccccc2)C(=O)C(=O)NCCCNS(=O)(=O)c2ccc([N+](=O)[O-])cc2)Cc2cc3c(cc2S1(=O)=O)OCCO3 (stereo partly drawn) [Cpd 14U, 3-((3,4-Dihydro-6,7-ethylenedioxy-2-ethyl-2H-1,2-benzothiazine-3-carbonyl)amino)-3-(S)-benzyl-2-oxo-N-(3-(4-nitrobenzenesulfonylamino)propyl)propanamide 1,1-dioxide] | 50
10 | CCN1C(C(=O)N[C@@H](Cc2ccccc2)C(=O)C(=O)NCCNS(=O)(=O)c2ccc([N+](=O)[O-])cc2)Cc2cc3c(cc2S1(=O)=O)OCCO3 (stereo partly drawn) [Cpd 14T, 3-((3,4-Dihydro-6,7-ethylenedioxy-2-ethyl-2H-1,2-benzothiazine-3-carbonyl)amino)-3-(S)-benzyl-2-oxo-N-(2-(4-nitrobenzenesulfonylamino)ethyl)propanamide 1,1-dioxide] | 47
11 | CCNC(=O)C(=O)[C@H](Cc1ccccc1)NC(=O)C1Cc2cc3c(cc2S(=O)(=O)N1CC)OCCO3 (stereo partly shown) [Cpd 14D] | 340
12 | CCCCNC(=O)C(=O)[C@H](Cc1ccccc1)NC(=O)C1Cc2cc3c(cc2S(=O)(=O)N1)OCCO3 (stereo partly drawn) [Cpd 14AD, N-Butyl-3-(3,4-Dihydro-6,7-ethylenedioxy-2H-1,2-benzothiazine-3-carboxamido)-2-oxo-3-(S)-benzylpropanamide 1,1-dioxide] | ~200
13 | CCN1C(C(=O)N[C@@H](Cc2ccccc2)C(=O)C(=O)NCCCNS(=O)(=O)c2ccc(F)cc2)Cc2cc3c(cc2S1(=O)=O)OCCO3 (stereo partly drawn) [Cpd 14Z, 3-((3,4-Dihydro-6,7-ethylenedioxy-2-ethyl-2H-1,2-benzothiazine-3-carbonyl)amino)-3-(S)-benzyl-2-oxo-N-(3-(4-fluorobenzenesulfonylamino)propyl)propanamide 1,1-dioxide] | 50
14 | CCN1C(C(=O)N[C@@H](Cc2ccccc2)C(=O)C(=O)NCCCNS(=O)(=O)c2ccc(Cl)c(Cl)c2)Cc2cc3c(cc2S1(=O)=O)OCCO3 (stereo partly drawn) [Cpd 14W, 3-((3,4-Dihydro-6,7-ethylenedioxy-2-ethyl-2H-1,2-benzothiazine-3-carbonyl)amino)-3-(S)-benzyl-2-oxo-N-(3-(3,4-dichlorobenzenesulfonylamino)propyl)propanamide 1,1-dioxide] | 56

Same assay, conditions: Table IV; calpain I, 0.2 mM Succ-Leu-Tyr-MNA, pH 7.5; read-out: IC50

Row | SMILES | IC50 [nM]
15 | CN1C(C(=O)N[C@H](C=O)Cc2ccccc2)=Cc2cc3c(cc2S1(=O)=O)OCCO3 [Cpd 26b, N-(6,7-Ethylenedioxy-2-methyl-2H-1,2-benzothiazine-3-carbonyl)-L-phenylalaninal 1,1-dioxide] | 6
16 | CCCCNC(=O)C(=O)[C@H](Cc1ccccc1)NC(=O)C1=C(OC)c2ccccc2S(=O)(=O)N1C [Cpd 27g, 3-((4-Methoxy-2-methyl-2H-1,2-benzothiazine-3-carbonyl)amino)-3-(S)-benzyl-2-oxo-N-butylpropanamide 1,1-dioxide] | 900
17 | CCCCNC(=O)C(=O)[C@H](Cc1ccccc1)NC(=O)C1=Cc2cc3c(cc2S(=O)(=O)N1CC)OCCO3 [Cpd 27f] | 155
18 | COC1=C(C(=O)N[C@H](C=O)Cc2ccccc2)N(C)S(=O)(=O)c2ccccc21 [Cpd 26d, N-(2-Methyl-4-methoxy-2H-1,2-benzothiazine-3-carbonyl)-L-phenylalaninal 1,1-dioxide] | 37

Same assay, conditions: Table V; calpain I, 0.2 mM Succ-Leu-Tyr-MNA, pH 7.5; * mixture of diastereomers, a,b single diastereomers; read-out: IC50

Row | SMILES | IC50 [nM]
19 | CCN1C(C(=O)N[C@H](C=O)Cc2ccccc2)N(Cc2ccccc2)c2ccccc2S1(=O)=O (single isomer, unassigned) [Cpd 35c, N-(3,4-Dihydro-2-ethyl-4-benzyl-2H-1,2,4-benzothiadiazine-3-carbonyl)-L-phenylalaninal 1,1-dioxide] | ~10000
20 | CCCCNC(=O)C(=O)[C@H](Cc1ccccc1)NC(=O)C1Nc2ccccc2S(=O)(=O)N1C (stereo partly drawn) [Cpd 35e, 3-((3,4-Dihydro-4H-2-methyl-2H-1,2,4-benzothiadiazine-3-carbonyl)amino)-3-(S)-benzyl-2-oxo-N-butylpropanamide 1,1-dioxide] | ~2000
21 | CCN1C(C(=O)N[C@H](C=O)Cc2ccccc2)N(Cc2ccccc2)c2ccccc2S1(=O)=O (single isomer, unassigned) [Cpd 35d, N-(3,4-Dihydro-2-ethyl-4-benzyl-2H-1,2,4-benzothiadiazine-3-carbonyl)-L-phenylalaninal 1,1-dioxide] | ~1000

Same assay, conditions: Table VI; calpain I, 0.2 mM Succ-Leu-Tyr-MNA, pH 7.5; read-out: IC50

Row | SMILES | IC50 [nM]
22 | O=C[C@H](Cc1ccccc1)NC(=O)C1=Nc2ccccc2S(=O)(=O)N1 [Cpd 42a, N-(2H-1,2,4-Benzothiadiazine-3-carbonyl)-L-phenylalaninal 1,1-dioxide] | 83
23 | CCCCNC(=O)C(=O)[C@H](Cc1ccccc1)NC(=O)C1=Nc2ccccc2S(=O)(=O)N1 [Cpd 42c, 3-((2H-1,2,4-Benzothiadiazine-3-carbonyl)amino)-3-(S)-benzyl-2-oxo-N-butylpropanamide 1,1-dioxide] | ~5000

Same assay, conditions: Table VII; calpain I, 0.2 mM Succ-Leu-Tyr-MNA, pH 7.5; a,b single diastereomers; read-out: IC50

Row | SMILES | IC50 [nM]
24 | CN1C(=O)c2ccccc2CC1C(=O)N[C@H](C=O)Cc1ccccc1 (single isomer, unassigned) [Cpd 50c, N-(1-Oxo-2-methyl-1,2,3,4-tetrahydroisoquinoline-3-carbonyl)-L-phenylalaninal] | ~1000
25 | O=C[C@H](Cc1ccccc1)NC(=O)C1Cc2ccccc2C(=O)N1 (single isomer, unassigned) [Cpd 50a, N-(1-Oxo-1,2,3,4-tetrahydroisoquinoline-3-carbonyl)-L-phenylalaninal] | ~5000
